Converted amounts (≈) assume the structure as drawn.
Legend:
physchem [1] = settings: distilled water, 30 °C, thermodynamic from solid
Method: (§1) To measure the solubility of inotodiol esters with respect to water, 5 mg of each sample was suspended in 1 mL of distilled water and treated in an ultrasonic bath for 30 minutes. The mixture was then treated in an ultrasonic bath (Power sonic 410) for 30 minutes. Then, the mixture was incubated at 30° C. for 3 hours. The supernatant obtained after centrifugation (20,000×g, 10 minutes) was filtered through a 0.45 μm membrane filter of [sequence]

[2] = Solubility of inotodiol in organic solvents (Example 1, HPLC-UV-VIS of supernatant); assay type: physicochemical; settings: 30 °C
Method: To measure the […] solubility of inotodiol, the following was performed.
First, 50 mg of an inotodiol sample was mixed with 1 ml of an organic solvent. Subsequently, the mixture was vortexed and placed in a water bath sonicator for 15 minutes. […]

physchem [3] = settings: 30 °C, water, thermodynamic from solid
Method: as §1

`CC(C)=CC[C@@H](O)[C@@H](C)[C@H]1CC[C@@]2(C)C3=C(CC[C@]12C)[C@@]1(C)CC[C@H](O)C(C)(C)[C@@H]1CC3` [Inotodiol, (3S,5R,10S,13R,14R,17R)-17-[(2S,3R)-3-hydroxy-6-methylhept-5-en-2-yl]-4,4,10,13,14-pentamethyl-2,3,5,6,7,11,12,15,16,17-decahydro-1H-cyclopenta[a]phenanthren-3-ol] showed a solubility at 3 h (physchem [1]) of 0.0005 ± 0.00018 mg/mL (≈ 0.00113 mM), an Inotodiol concentration ([2]; solvent acetonitrile) of 0.976 mg/mL and an Inotodiol concentration ([2]; solvent dichloromethane) of 24.675 mg/mL. It also gave an Inotodiol concentration ([2]; solvent ethanol) of 25.152 mg/mL, an Inotodiol concentration ([2]; solvent ethyl acetate) of 8.685 mg/mL and an Inotodiol concentration ([2]; solvent hexane) of 0.094 mg/mL. For the same compound, the Inotodiol concentration ([2]; solvent methanol) was 7.964 mg/mL, the Inotodiol concentration ([2]; solvent t-butanol) was 26.493 mg/mL and the solubility at 3 h (physchem [3]) was 31 ± 3.8 mg/mL (≈ 70 mM).
